# Test system: Lox-IMVI melanoma cell line
# Experiment: Lox-IMVI anti-proliferative assay (growth inhibition, Cell Titer-Glo)
# Type: cell-based, human
# Details: Homo sapiens; Lox-IMVI anti-proliferative assay, IC50 activity level; read-out: Activity
# Summary of the method: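 IC50 values reflect the concentration giving 50% of DMSO-control luminescence after 72 h of treatment, fitted with a four-parameter logistic model. Cells were cultured in RPMI + 10% FBS with compound from 0.5 nM to 10 μM.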
row,IC50,SMILES
1,> 1000 nM,"COC(=O)N1CCCC(Nc2ncc3nc(Nc4c(Cl)cccc4Cl)n([C@H]4CC[C@@H](C(N)=O)CC4)c3n2)C1 (stereo partly drawn) [Example 405, (R)-methyl 3-(9-((1s,4S)-4-carbamoylcyclohexyl)-8-(2,6-dichlorophenylamino)-9H-purin-2-ylamino)piperidine-1-carboxylate]"
2,> 1000 nM,"COC(=O)N1CCCC(Nc2ncc3nc(Nc4c(F)cccc4Cl)n([C@H]4CC[C@@H](C(N)=O)CC4)c3n2)C1 (stereo partly drawn) [Example 406, (R)-methyl 3-(9-((1s,4S)-4-carbamoylcyclohexyl)-8-(2-chloro-6-fluorophenylamino)-9H-purin-2-ylamino)piperidine-1-carboxylate]"
3,> 1000 nM,"COC(=O)N1CCC[C@@H](Nc2ncc3nc(Nc4c(F)cc(F)cc4Cl)n([C@H]4CC[C@@H](C(N)=O)CC4)c3n2)C1 [Example 407, (R)-methyl 3-(9-((1s,4S)-4-carbamoylcyclohexyl)-8-(2-chloro-4,6-difluorophenylamino)-9H-purin-2-ylamino)piperidine-1-carboxylate]"
4,500 to 1000 nM,"COC(=O)N1CCC[C@@H](Nc2ncc3nc(Nc4c(F)cc(Cl)cc4F)n([C@H]4CC[C@@H](C(N)=O)CC4)c3n2)C1 [Example 408, (R)-methyl 3-(9-((1s,4S)-4-carbamoylcyclohexyl)-8-(4-chloro-2,6-difluorophenylamino)-9H-purin-2-ylamino)piperidine-1-carboxylate]"
5,500 to 1000 nM,"COC(=O)N1CCC[C@@H](Nc2ncc3nc(Nc4c(Cl)cc(Cl)cc4Cl)n([C@H]4CC[C@@H](C(N)=O)CC4)c3n2)C1 [Example 409, (R)-methyl 3-(9-((1s,4S)-4-carbamoylcyclohexyl)-8-(2,4,6-trichlorophenylamino)-9H-purin-2-ylamino)piperidine-1-carboxylate]"
6,> 1000 nM,"COC(=O)N1CCC[C@@H](Nc2ncc3nc(Nc4c(Cl)cc(F)cc4Cl)n([C@H]4CC[C@@H](C(N)=O)CC4)c3n2)C1 [Example 410, (R)-methyl 3-(9-((1s,4S)-4-carbamoylcyclohexyl)-8-(2,6-dichloro-4-fluorophenylamino)-9H-purin-2-ylamino)piperidine-1-carboxylate]"
7,> 1000 nM,"COC(=O)N1CCC[C@@H](Nc2ncc3nc(Nc4ccc(Cl)c(F)c4F)n([C@H]4CC[C@@H](C(N)=O)CC4)c3n2)C1 [Example 411, (R)-methyl 3-(9-((1s,4S)-4-carbamoylcyclohexyl)-8-(4-chloro-2,3 difluorophenylamino)-9H-purin-2-ylamino)piperidine-1-carboxylate]"
8,250 to 500 nM,"COC(=O)N1CCCC(Nc2ncc3nc(Nc4c(F)cc(Cl)cc4Cl)n([C@H]4CC[C@@H](C(N)=O)CC4)c3n2)C1 (stereo partly drawn) [Example 412, (R)-methyl 3-(9-((1s,4S)-4-carbamoylcyclohexyl)-8-(2,4-dichloro-6-fluorophenylamino)-9H-purin-2-ylamino)piperidine-1-carboxylate]"
9,> 1000 nM,"COC(=O)N1CCCC(Nc2ncc3nc(Nc4c(F)ccc(Cl)c4F)n([C@H]4CC[C@@H](C(N)=O)CC4)c3n2)C1 (stereo partly drawn) [Example 413, (R)-methyl 3-(9-((1s,4S)-4-carbamoylcyclohexyl)-8-(3-chloro-2,6-difluorophenylamino)-9H-purin-2-ylamino)piperidine-1-carboxylate]"
10,500 to 1000 nM,"NC(=O)[C@H]1CC[C@@H](n2c(Nc3c(Cl)cc(Cl)cc3Cl)nc3cnc(N[C@@H]4CCC[C@@H](O)C4)nc32)CC1 [Example 415, (1S,4s)-4-(2-((1R,3R)-3-hydroxycyclohexylamino)-8-(2,4,6-trichlorophenylamino)-9H-purin-9-yl)cyclohexanecarboxamide]"
11,> 1000 nM,"NC(=O)[C@H]1CC[C@@H](n2c(Nc3c(F)cccc3Cl)nc3cnc(N[C@@H]4CCC[C@@H](O)C4)nc32)CC1 [Example 416, (1S,4s)-4-(8-(2-chloro-6-fluorophenylamino)-2-((1R,3R)-3-hydroxycyclohexylamino)-9H-purin-9-yl)cyclohexanecarboxamide]"

# Source: US11590139B2, “Substituted aminopurine compounds, compositions thereof, and methods of treatment therewith” (Signal Pharmaceuticals, LLC, priority 2014, dated 2023)
